Patent publication US7378407B2, “Geldanamycin compounds and method of use” (Kosan Biosciences Incorporated, priority 2004, dated 2008)
Like-named read-outs stand apart in the source and are kept apart here.

Assays:
human Hsp90α = human Hsp90α (Homo sapiens, UniProt P07900); test: Hsp90α binding, SPA competition with [allyl-3H]-17-AAG
Excerpt: Truncated (Carreras et al. Anal. Biochem. 2003, 317, 40-46) and full-length forms of human Hsp90 were expressed in E. coli with N-terminal polyHis and biotinylation recognition sequence (BRS) tags to facilitate purification and SPA assay, respectively. […] The 3′ end of the gene contained a BamHI site, adding a single proline residue to the C-terminus. The tagged full-length protein was cloned into pET21d as described for the tagged N-domain of Hsp90 (Carreras et al., cited supra), and co-expressed with biotin ligase encoded by pBIRAcm (Avidity, Denver, Colo.) in Escherichia coli BL21DE(3).
Biotinylated Hsp90α was added to a 1 mg/mL suspension of streptavidin coated YiSi beads (Pharmacia RPNQ0012; 219 pmol streptavidin/mg) in Binding Buffer (10 mM Tris-HCl, 5 mM MgCl2, pH 7.0) to obtain a final concentration of 225 nM. […] Reaction mixtures were incubated for 2˜4 h at room temperature in 96-well assay plates, then signals for each reaction were measured using a Wallac Microbeta scintillation counter. The resulting data was fit to a competitive binding equation (Segal, I. H., Enzyme Kinetics: Behavior and analysis of rapid equilibrium and steady-state enzyme systems; Wiley Interscience: New York, 1975).

SKBr3 cells = test: cells; type: cell-based, human; settings: read-out: Cytotoxicity, SKBr3 Cells (IC50 (nM))
Procedure: The human breast cancer cell line SKBr3 was obtained from the American Type Culture Collection (Manassas, Va.) and maintained in McCoy's 5A modified medium (Invitrogen; Carlsbad, Calif.) supplemented with 10% fetal bovine serum (FBS) (Hyclone; Logan, Utah) and 2 mM glutamine, in humidified air with 5% CO2 at 37° C.
Cells were seeded in duplicate in 96-well black tissue culture microtiter plates at ˜4000 cells per well and allowed to attach overnight. Serial 10-fold dilutions of compounds were added, and the cells were incubated for 72 h. Cell viability was determined using the CellTiter-Glo™ Luminescent Cell Viability Assay (Promega; Madison, Wis.). IC50 is defined as the concentration of drug required for inhibiting cell growth by 50%.

[1] = biotinylated Hsp90α on streptavidin beads, competition with [allyl-3H]-17-AAG, 2-4 h room temperature, pH 7.0, read-out: Hsp90α Binding (Kd (μM))
[2] = SK-BR-3, human breast cancer cell line SKBr3, 72 h incubation, concentration inhibiting cell growth by 50%

Row | SMILES | Kd (human Hsp90α; [1]) | IC50 (SKBr3 cells; [2]) | Kd (human Hsp90α) | IC50 (SKBr3 cells; Homo sapiens, SK-BR-3, 72 h)
1 | CO[C@H]1/C=C\C=C(/C)C(=O)NC2=CC(=O)C(N[C@@H]3C(O)O[C@@H](CO)[C@H](O)[C@H]3O)=C(C[C@@H](C)C[C@H](OC)[C@H](O)[C@@H](C)/C=C(\C)[C@@H]1OC(N)=O)C2=O (stereo partly shown) [Compound 1, 17-(glucos-2-amino)-17-demethoxygeldanamycin] | 0.5 µM | 1200 nM | – | –
2 | CO[C@H]1/C=C\C=C(/C)C(=O)NC2=CC(=O)C(NC[C@@H]3OC(O)[C@@H](O)[C@H](O)[C@H]3O)=C(C[C@@H](C)C[C@H](OC)[C@H](O)[C@@H](C)/C=C(\C)[C@@H]1OC(N)=O)C2=O (stereo partly shown) [Compound 2, 17-(glucos-6-amino)-17-demethoxygeldanamycin] | 0.2 µM | 5300 nM | – | –
3 | CO[C@H]1/C=C\C=C(/C)C(=O)NC2=CC(=O)C(NCC[N+](C)(C)C)=C(C[C@@H](C)C[C@H](OC)[C@H](O)[C@@H](C)/C=C(\C)[C@@H]1OC(N)=O)C2=O [Compound 3, {[2-(17-demethoxygeldanamycin-17-yl)amino]ethyl}trimethylammonium chloride] | 0.3 µM | > 1000 nM | – | –
4 | CO[C@H]1/C=C\C=C(/C)C(=O)NC2=CC(=O)C(NCC[N+](C)(C)[O-])=C(C[C@@H](C)C[C@H](OC)[C@H](O)[C@@H](C)/C=C(\C)[C@@H]1OC(N)=O)C2=O [Compound 4, [2-(17-demethoxygeldanamycin-17-ylamino)-ethyl]dimethylamine N-oxide] | 0.6 µM | > 1000 nM | – | –
5 | CO[C@H]1/C=C\C=C(/C)C(=O)NC2=CC(=O)C(NCCOCCOCCNC(=O)CCCC[C@@H]3SC[C@@H]4NC(=O)N[C@@H]43)=C(C[C@@H](C)C[C@H](OC)[C@H](O)[C@@H](C)/C=C(\C)[C@@H]1OC(N)=O)C2=O [Compound 5] | – | > 1000 nM | – | –
6 | CO[C@H]1/C=C\C=C(/C)C(=O)NC2=CC(=O)C(NCCOCCOCCOCCNC(=O)CCCC[C@@H]3SC[C@@H]4NC(=O)N[C@@H]43)=C(C[C@@H](C)C[C@H](OC)[C@H](O)[C@@H](C)/C=C(\C)[C@@H]1OC(N)=O)C2=O [Compound 6] | 1.1 µM | > 1000 nM | – | –
7 | CO[C@H]1/C=C\C=C(/C)C(=O)NC2=CC(=O)C(NCCC(=O)O)=C(C[C@@H](C)C[C@H](OC)[C@H](O)[C@@H](C)/C=C(\C)[C@@H]1OC(N)=O)C2=O [Compound 7] | 1.1 µM | > 5000 nM | – | –
8 | CO[C@H]1/C=C\C=C(/C)C(=O)NC2=CC(=O)C(NCCP(=O)(O)O)=C(C[C@@H](C)C[C@H](OC)[C@H](O)[C@@H](C)/C=C(\C)[C@@H]1OC(N)=O)C2=O [Compound 8] | – | – | 0.6 µM | ~3000 nM
9 | CO[C@H]1/C=C\C=C(/C)C(=O)NC2=CC(=O)C(NCCCP(=O)(O)O)=C(C[C@@H](C)C[C@H](OC)[C@H](O)[C@@H](C)/C=C(\C)[C@@H]1OC(N)=O)C2=O [Compound 9] | – | – | 0.9 µM | ~1000 nM
10 | CO[C@H]1/C=C\C=C(/C)C(=O)NC2=CC(=O)C(NCCCCP(=O)(O)O)=C(C[C@@H](C)C[C@H](OC)[C@H](O)[C@@H](C)/C=C(\C)[C@@H]1OC(N)=O)C2=O [Compound 10] | – | – | – | ~2000 nM
11 | C=CCNC1=C2C[C@@H](C)C[C@H](OC)[C@H](O)[C@@H](C)/C=C(\C)[C@H](OC(N)=O)[C@@H](OC)/C=C\C=C(/C)C(=O)NC(=CC1=O)C2=O [Compound 17-AAG, 17-allylamino-17-demethoxy-geldanamycin, reference compound] | – | – | – | 38 nM
